Measurements from patent US6673902B2, “Cyclin D binding factor, and uses thereof” (St. Jude Children's Research Hospital, priority 1996, dated 2004).

Key:
32P-BS2 Probe = experiment: EMSA with 32P-BS2 probe on transfection lysates of NIH-3T3 fibroblasts; format: binding; settings: EMSA, 32P-BS2 probe, lysates of transfected NIH-3T3 fibroblasts
Protocol: (§1) Double-stranded oligonucleotides containing potential DMP1 binding sites (BS1 and BS2) and mutated versions (M1-M4) (FIG. 5B) are end-labeled with ^32P using the Klenow fragment of DNA polymerase and α-^32P-dATP (6000 Ci/mmol; Dupont NEN) (8). Nuclear extracts from mouse NIH-3T3 or CTLL cells are prepared with buffer containing 0.4 M NaCl (2). Mammalian cell extracts (15 μg protein) or Sf9 lysates (corresponding to 5×10^2 infected cells) containing ˜4 ng recombinant DMP1 are mixed with 3 ng of ^32P-labeled probe (1×10^5 cpm) in 15 ul Binding buffer containing 2.5 μg of poly(dI-dC) and 2.5 μg BSA and incubated at 4° C. for 30 minutes. For competition experiments, the indicated amounts of unlabeled oligonucleotides are added to the reactions before addition of the labeled probe. In some experiments, a bacterially produced GST-Ets2 fusion protein containing the complete Ets2 DNA-binding domain (10) is used in place of Sf9 extracts containing recombinant DMP1. Protein-DNA complexes are separated on nondenaturing 4% polyacrylamide gels as described (8). Where indicated, antiserum to DMP1 together with 2.5 μg salmon testis DNA (Sigma; used to reduce nonspecific DNA binding activity caused by serum addition) is preincubated with extracts for 30 minutes at 4° C. prior to initiation of binding reactions. Immune complexes are either removed by adsorption to protein A-Sepharose beads (immunodepletion experiments) or are allowed to remain (“supershift” experiments).
A series of deletion mutants and a point mutant of DMP1, K319E, (in which the lysine at position 319 of SEQ ID NO:1 is replaced by a glutamic acid) were prepared and used to determine the DNA-binding domain of DMP1 by electrophoretic mobility shift assay (EMSA) using a ^32P labeled BS2 probe. The DNA-binding domain of DMP1 was mapped to a central region containing the three MYB repeats plus adjacent flanking sequences: a BstEII to NcoI fragment encoding amino acids 87-458 of SEQ ID NO:1 (Table 1). This region alone was necessary and sufficient for DNA binding.

[1] = system: DMP1-responsive promoter (pGL2BS2); experiment: Transactivation of luciferase reporter plasmid under control of a DMP1-responsive promoter in NIH-3T3 fibroblasts; format: cell-based, mouse; settings: expression vector 3 μg/10 ml, pGL2BS2 8 μg/10 ml; vector without insert set to 1.0
Source text: Coexpression of a D-type cyclin with DMP1 overrides the ability of DMP1 to transactivate a luciferase gene under the control of an artificial DMP1-responsive promoter (Table 4), as well as the ability of DMP1 to inhibit cell growth.

NIH-3T3 fibroblasts = experiment: BrdU incorporation in transfected NIH-3T3 fibroblasts; format: cell-based, mouse; settings: for % Cells BrdU Positive: Table 2, expression vector 3 μg/10 ml; for % Cells BrdU Positive in 10% FCS: nonstarved cells; for % Cells BrdU Positive in 10% FCS / % Cells BrdU Positive in 0.1% FCS: additive None, labeled 22 hours; for % Cells BrdU Positive in 0.1% FCS: starved cells
Protocol: BrdU is added to NIH-3T3 cells after the experimental treatment and the cells were incubated for twenty-two hours in DMEM plus 10% fetal calf serum (FCS). The cells were then stained for DMP1 expression and/or BrdU incorporation. The nucleic acids encoding the wildtype DMP1 and the deletion and point mutants had been constructed so as to express the corresponding proteins with Flag-tags. To stain for DMP1 expression, mouse monoclonal anti-Flag antibodies (12 μg/ml) [Kodak] were incubated with the cells in TBS-Ca^+ without FCS for one hour at room temperature. After washing the cells, horse anti-mouse biotinylated antibodies at a 1:500 dilution were added to the cells in TBS plus 5% FCS and incubated for 30 minutes at room temperature. After washing the cells, strefptavidin linked to Texas red [Amersham] was then added at a 1:500 dilution for 30 minutes at room temperature. To stain for BrdU incorporation, 1.5N HCl was added to the cells for ten minutes at room temperature to denature the DNA. After washing the cells, sheep anti-BrdU antibodies [Fitzgerald] at a 1:12 dilution were then added for one hour at room temperature. After washing the cells, rabbit FITC-conjugated anti-sheep antibodies [Vector] at 1:100 dilution was then incubated for 30 minutes at room temperature.
NIH-3T3 cells were placed on cover slides and transfected with the expression vectors (pFLEX-DMP1 or the corresponding vector containing the deletion or point mutants of mouse DMP1 plus or minus cyclin D or E) for fourteen hours. The cells were then washed twice and DMEM plus 10% FCS was added and the cells incubated for eight hours. Half of the cells were starved by washing twice with 0.1% FCS, and then incubated for twenty-four hours in 0.1% FCS in DMEM. The remaining cells were not starved but were incubated for twenty-four hours in DMEM plus 10% FCS without washing. BrdU was added to both groups of cells and the cells were incubated for twenty-two hours in DMEM plus 10% FCS.
The cells were then restimulated to enter the cell cycle synchronously with DMEM plus 10% FCS. At the same time, 5′-Bromo-2′ Deoxyuridine (BrdU) was added to the medium. The cells were fixed 22 hours later in methanol acetone (1:1) and stained for BrdU incorporation and DMP1 expression as described in the Materials and Methods.

recombinant DMP1 = target: T1, recombinant DMP1 (Mus musculus, UniProt Q8CE22); experiment: EMSA competition with Sf9 lysates producing recombinant DMP1; format: binding; settings: excess unlabeled oligonucleotide
T1 construct: made in house; host or cells: Sf9 insect cells, pAcYM1 baculovirus vector; used as crude lysate (~4 ng DMP1 per reaction)
T1 sequence (Q8CE22 1-761): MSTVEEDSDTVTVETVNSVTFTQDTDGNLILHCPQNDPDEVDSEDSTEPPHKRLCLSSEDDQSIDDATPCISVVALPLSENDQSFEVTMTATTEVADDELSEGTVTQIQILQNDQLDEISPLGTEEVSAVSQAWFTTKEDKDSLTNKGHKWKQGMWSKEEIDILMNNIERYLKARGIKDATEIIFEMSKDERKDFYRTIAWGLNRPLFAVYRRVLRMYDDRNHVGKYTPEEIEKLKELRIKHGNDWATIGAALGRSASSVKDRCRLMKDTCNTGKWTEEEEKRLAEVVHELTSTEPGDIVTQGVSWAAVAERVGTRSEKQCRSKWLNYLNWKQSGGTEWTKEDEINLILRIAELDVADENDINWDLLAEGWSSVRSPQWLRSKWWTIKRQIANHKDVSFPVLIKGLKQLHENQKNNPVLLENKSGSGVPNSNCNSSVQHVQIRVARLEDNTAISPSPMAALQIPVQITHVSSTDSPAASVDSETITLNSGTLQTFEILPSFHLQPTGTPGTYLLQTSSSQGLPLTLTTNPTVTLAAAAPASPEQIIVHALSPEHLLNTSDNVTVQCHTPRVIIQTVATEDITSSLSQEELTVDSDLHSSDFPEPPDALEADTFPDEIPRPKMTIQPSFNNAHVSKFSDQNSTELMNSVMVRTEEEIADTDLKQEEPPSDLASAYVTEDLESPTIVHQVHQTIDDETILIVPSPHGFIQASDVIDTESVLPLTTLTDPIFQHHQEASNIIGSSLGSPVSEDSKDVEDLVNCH
Protocol: as §1
(§2) Using electrophoretic mobility shift assays (EMSA) performed after mixing a titrated excess (3 ng) of ^32P-end labeled BS1 probe with Sf9 lysates producing DMP1 (˜4 ng recombinant protein per reaction), a BS1-containing protein complex is detected that was competed with an excess of unlabeled BS1 oligonucleotide but not with mutant oligonucleotides M1 and M2 (FIG. 6A). […] More subtle mutations within this region may be tolerated, because high concentrations of M4 competed for BS1 binding to both Ets2 and DMP1 in subsequent studies (FIG. 5B and see below). DMP1 also binds a BS2 probe, and the binding is competed by excess BS2 or BS1 (FIG. 6B). In agreement with the site selection frequencies (FIG. 5A), binding of ^32P-BS1 under equivalent conditions was competed more efficiently by excess unlabeled BS1 than by BS2 (FIG. 6B). […] In agreement, Ets2 binding to BS1 could be competed with excess unlabeled BS1 and M3, but not by BS2 (FIG. 6C). Therefore, although both DMP1 and Ets2 can each bind to BS1 sequences, their exclusive interactions with BS2 and M3, respectively, help to distinguish DMP1 and Ets binding activities (summarized in FIG. 5B).

GST-Ets2 fusion protein = target: T2, GST-Ets2 fusion protein (Homo sapiens, UniProt P15036); experiment: EMSA competition with bacterial GST-Ets2 fusion protein; format: binding; settings: excess unlabeled oligonucleotide
T2 construct: made in house; host or cells: bacteria
T2 sequence (P15036 363-443 limits assumed): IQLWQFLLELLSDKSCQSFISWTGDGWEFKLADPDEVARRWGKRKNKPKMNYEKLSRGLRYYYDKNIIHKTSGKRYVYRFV
Protocol: as §1, §2

cyclin D1 = target: T3, cyclin D1 (Mus musculus, UniProt P25322); experiment: Flag immunoprecipitation from SF9 lysates and Western blot for cyclin D1; format: binding; settings: cotransfected with cyclin D1 in SF9 cells
T3 construct: expressed in transfected cells; host or cells: SF9 insect cells
T3 sequence (P25322 whole entry): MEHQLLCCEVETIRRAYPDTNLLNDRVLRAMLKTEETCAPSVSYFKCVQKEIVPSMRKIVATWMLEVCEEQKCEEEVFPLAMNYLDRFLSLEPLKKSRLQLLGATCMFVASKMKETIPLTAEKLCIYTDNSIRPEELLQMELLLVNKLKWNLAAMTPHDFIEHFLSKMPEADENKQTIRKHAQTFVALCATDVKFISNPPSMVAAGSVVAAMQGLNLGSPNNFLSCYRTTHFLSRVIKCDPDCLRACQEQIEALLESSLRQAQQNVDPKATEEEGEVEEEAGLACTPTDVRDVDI
Source text: The series of DMP1 deletion mutants and the K319E point mutant were then used to determine the cyclin D binding domain of DMP1. Expression vectors encoding murine wild-type DMP1, the corresponding deletion mutations, or K319E (i.e., wildtype DMP1 and M1-M11, defined in FIG. 10, Table 1) were cotransfected with an expression vector encoding cyclin D1 into SF9 cells. Wildtype DMP1 and M1-M11 were expressed containing Flag-tags. SF9 lysates were immunoprecipitated with an antibody raised against the Flag-tag. The immunoprecipitates were resolved individually by gel electrophoresis, and then Western blotted with an antibody raised against cyclin D1. […] Therefore, deletion of the N-terminal domain of DMP1 (i.e., amino acids 1-223) abrogates its ability to interact with D-type cyclins, and thus, the region of DMP1 from residues 1-223 contains a specific cyclin D interaction motif required for D-type cyclin-DMP1 association.

Row | Substance | 32P-labeled Band (32P-BS2 Probe) | Luciferase Activity [1] | % Cells BrdU Positive (NIH-3T3 fibroblasts) | competition for 32P-BS1 probe binding to DMP1 (recombinant DMP1) | competition for BS1 binding to Ets2 (GST-Ets2 fusion protein) | band corresponding to cyclin D1 in Flag immunoprecipitate (cyclin D1) | % Cells BrdU Positive in 10% FCS (NIH-3T3 fibroblasts) | % Cells BrdU Positive in 0.1% FCS (NIH-3T3 fibroblasts) | competition for BS2 probe binding to DMP1 (recombinant DMP1)
1 | M1: DMP1 deletion mutant (EcoNI), amino acids 1-661 of SEQ ID NO:1 | Yes | 6.7 | 12% | not |  |  |  |  | 
2 | M2: DMP1 deletion mutant (StuI), amino acids 1-520 of SEQ ID NO:1 | Yes | 3.6 | 20% | not |  |  |  |  | 
3 | M4: DMP1 deletion mutant (BstBI), amino acids 1-380 of SEQ ID NO:1 | No | 1.0 | 52% | competed | competed |  |  |  | 
4 | M5: DMP1 deletion mutant (XbaI and BstEII), amino acids 87-761 of SEQ ID NO:1 | Yes | 6.2 | 32% |  |  | particularly faint |  |  | 
5 | M6: DMP1 deletion mutant, amino acids 1-86; 170-761 of SEQ ID NO:1 | No | 1.0 | 48% |  |  |  | 44% | 47% | 
6 | M7: DMP1 deletion mutant, amino acids 1-169; 238-761 of SEQ ID NO:1 | No | 0.9 | 36% |  |  |  |  |  | 
7 | M8: DMP1 deletion mutant, amino acids 1-237; 381-761 of SEQ ID NO:1 | No | 1.1 | 54% |  |  |  | 54% | 54% | 
8 | M9: DMP1 5′ deletion mutant, amino acids 234-761 of SEQ ID NO:1 | No | 1.0 | 50% |  |  | cyclin D1 binding domain is missing |  |  | 
9 | M10: DMP1 deletion mutant (BstEII and NcoI), amino acids 87-458 of SEQ ID NO:1 | Yes | 1.1 | 56% |  |  |  |  |  | 
10 | oligonucleotide BS1: probe/competitor BS1, SEQ ID NO:10, DMP1 binding site with GGA core (DNA AATTGACCCGGATGTAGGTACGC; chemistry not given here) |  |  |  | competed | competed |  |  |  | competed
